Here are results for 15 compounds from US5925769A, “Acetylenic 1,5-diarylpyrazoles as antiinflammatory agents” (Ortho Pharmaceutical, Corp., priority 1998, dated 1999).

Like-named read-outs stand apart in the source and are kept apart here.

The target in experiment [1] is T1, 5-LO (Rattus norvegicus, UniProt P12527).
T1 construct: the supernatant was saved as the source of enzymes; endogenous in cells; host or cells: RBL-1 (rat basophilic leukemia) cells
T1 sequence (P12527 1-673): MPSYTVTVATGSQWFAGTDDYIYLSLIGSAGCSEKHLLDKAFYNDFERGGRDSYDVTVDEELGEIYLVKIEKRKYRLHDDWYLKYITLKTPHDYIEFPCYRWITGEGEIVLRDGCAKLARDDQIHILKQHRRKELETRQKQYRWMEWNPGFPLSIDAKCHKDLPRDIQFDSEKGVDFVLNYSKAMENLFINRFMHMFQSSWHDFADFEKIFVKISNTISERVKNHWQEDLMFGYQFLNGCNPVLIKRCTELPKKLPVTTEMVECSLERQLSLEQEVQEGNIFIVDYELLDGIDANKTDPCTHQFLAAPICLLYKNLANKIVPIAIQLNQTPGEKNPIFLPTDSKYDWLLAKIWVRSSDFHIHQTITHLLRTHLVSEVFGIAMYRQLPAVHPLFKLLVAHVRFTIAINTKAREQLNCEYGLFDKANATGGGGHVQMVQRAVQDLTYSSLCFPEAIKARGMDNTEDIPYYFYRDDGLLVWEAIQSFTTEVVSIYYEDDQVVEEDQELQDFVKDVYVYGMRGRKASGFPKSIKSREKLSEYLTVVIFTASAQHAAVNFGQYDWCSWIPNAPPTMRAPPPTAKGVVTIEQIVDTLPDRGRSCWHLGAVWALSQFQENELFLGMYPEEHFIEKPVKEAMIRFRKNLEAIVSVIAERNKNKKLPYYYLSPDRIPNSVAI
In words: Procedure II: 5-LO activity (5-HETE) in broken RBL-1 cells (homogenate supernatant). The format is biochemical. To be noted: RBL-1 broken cell supernatant; for inhibition at 10 µM: 20 min, @ 10 .quadrature.M, read-out: Proc. II 5-LO % inhibition. The procedure: (§1) Procedure II was used to assess LO and CO activity. Rat basophilic leukemia cells (RBL-1; 5×10^7 viable cells/mL) were disrupted by homogenization on ice (four 20 sec bursts) with a Brinkman polytron. […] The homogenate was then centrifuged at 9,220×g for 48 minutes at 4° C. The pellet was discarded and the supernatant was saved as the source of enzymes. The supernatant was pre-incubated for five minutes at 37° C. in the presence of 2 mM of CaCl2 and compound or vehicle (1% DMSO). The conversion of AA into products by CO and LO was initiated by adding 10 μL (50 μCi) of 1-^14 C-AA to each tube and incubated at 37° C. for 20 minutes. The reaction was stopped by adjusting the pH of each sample to 3 to 3.5 with 2M formic acid. Samples were extracted with three volumes of chloroform to isolate the products of 5-LO formed during the reaction. Fractions were dried under nitrogen, then resuspended in 40 μL of chloroform and spotted onto silica gel HL plates. The plates were developed in A-9 solvent. The dried plates were analyzed using a Bioscan Imaging TLC scanner to determine the percentage of radiolabelled AA converted to 5-HETE (LO product) in each sample. The percentage of inhibition was calculated by:
(§2) [1-(5-HETE test)]/5-HETE control×100=% inhibition
(§3) The IC50 was determined using a curve fit in Cricket Graph (Computer Associated), which provided the equation of the regressed line used in the calculation.

Experiment [2] concerns the target T2, Sheep seminal vesicle (SSV) cyclooxygenase (Ovis aries, UniProt P05979).
T2 construct: Sheep seminal vesicle (SSV) cyclooxygenase (95% pure); purchased Biomol (Plymouth Meeting, PA); host or cells: sheep seminal vesicle
T2 sequence (P05979 25-600): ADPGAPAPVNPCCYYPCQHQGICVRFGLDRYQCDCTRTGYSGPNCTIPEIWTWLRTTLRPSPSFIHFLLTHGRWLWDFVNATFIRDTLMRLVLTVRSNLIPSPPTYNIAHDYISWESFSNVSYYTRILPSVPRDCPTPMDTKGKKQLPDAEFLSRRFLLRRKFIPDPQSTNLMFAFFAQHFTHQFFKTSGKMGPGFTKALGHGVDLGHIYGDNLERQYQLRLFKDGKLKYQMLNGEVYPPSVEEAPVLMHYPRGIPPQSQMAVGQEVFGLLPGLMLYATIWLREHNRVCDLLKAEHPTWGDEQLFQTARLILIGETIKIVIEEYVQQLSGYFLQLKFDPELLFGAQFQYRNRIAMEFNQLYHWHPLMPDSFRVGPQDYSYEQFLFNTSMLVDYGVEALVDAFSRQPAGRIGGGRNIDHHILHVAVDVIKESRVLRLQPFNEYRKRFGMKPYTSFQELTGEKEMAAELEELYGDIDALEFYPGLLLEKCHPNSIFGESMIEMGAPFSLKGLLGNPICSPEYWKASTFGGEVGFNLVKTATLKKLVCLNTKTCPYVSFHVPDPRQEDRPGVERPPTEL
Put plainly: Procedure I: inhibition of sheep seminal vesicle (SSV) cyclooxygenase. The format is biochemical. The conditions noted are these: for inhibition at 10 µM: 20 min, read-out: Proc. I % inhibition. As for the experimental part:
Procedure I was used to determine the ability of the compounds to inhibit cyclooxygenase. […] The enzyme was divided into 200 μL aliquots, snap frozen with liquid N2, and stored at -70° C. until immediately prior to use. […] The tubes were mixed on a vortex shaker, preincubated for 5 min at 37° C. prior to the initiation of the reaction. The reaction was started by the addition of [^14 C]-arachidonic acid (1-^14 C-AA, Amersham, Arlington Heights, Ill.) in 10 μL of methanol. Tubes were again vortexed and incubated in a water bath for 20 minutes after which the tubes were removed and the reaction stopped by acidification with the addition of 1 mL 2M formic acid. Lipophilic products were extracted with 3 mL chloroform and concentrated to dryness under N2. Each pellet was reconstituted with 40 μL of chloroform and spotted on a Whatman Silicon thin-layer chromatography plate and developed in a chromatography tank containing A-9 solvent (11:5:2:1 V:V:VV, ethyl acetate:trimethyl-pentane:acetic acid:double distilled-H2 O). Radioactive cyclooxygenase products (prostaglandin D2, prostaglandin E2, etc.) were measured using a Bioscan System 200 Imaging Scanner. Inhibition of enzyme activity was calculated by comparing the areas under the curve produced in the presence or absence of test compound.

The target of experiment [3] is T1, 5-LO. Put plainly: Procedure III: 5-LO (5-HETE) in intact RBL-1 cells. The format is cell-based. To be noted: calcium ionophore A 23187, read-out: Proc. III 5-LO IC50. As for the experimental part:
as §3
In Procedure III, the ability to inhibit 5-LO and CO in intact RBL-1 cells was also evaluated. […] Cells were collected by centrifugation, washed once in HBSS, and resuspended at a concentration of 1×10^5 cells/mL. Cells were incubated in the presence of vehicle or drug then centrifuged at 800×g for 10 minutes at 4° C. The supernatant was removed by aspiration and the cells were resuspended in 0.5 mL of HBSS. […] The conversion of AA to 5-LO products was initiated by the addition of 10 μL (50 μCi) of 1-^14 C-AA. Products were isolated by acidification and extraction, followed by thin layer chromatography analysis as described above. Radioactive areas corresponding to authentic 5-LO (5-HETE) and CO (PgD2) products were quantitated by the Bioscan 2000 Imaging System and the IC50 was calculated as above.

In a further experiment the target is T3, CO (Rattus norvegicus, UniProt Q63921).
T3 construct: the supernatant was saved as the source of enzymes; endogenous in cells; host or cells: RBL-1 (rat basophilic leukemia) cells
T3 sequence (Q63921 27-602): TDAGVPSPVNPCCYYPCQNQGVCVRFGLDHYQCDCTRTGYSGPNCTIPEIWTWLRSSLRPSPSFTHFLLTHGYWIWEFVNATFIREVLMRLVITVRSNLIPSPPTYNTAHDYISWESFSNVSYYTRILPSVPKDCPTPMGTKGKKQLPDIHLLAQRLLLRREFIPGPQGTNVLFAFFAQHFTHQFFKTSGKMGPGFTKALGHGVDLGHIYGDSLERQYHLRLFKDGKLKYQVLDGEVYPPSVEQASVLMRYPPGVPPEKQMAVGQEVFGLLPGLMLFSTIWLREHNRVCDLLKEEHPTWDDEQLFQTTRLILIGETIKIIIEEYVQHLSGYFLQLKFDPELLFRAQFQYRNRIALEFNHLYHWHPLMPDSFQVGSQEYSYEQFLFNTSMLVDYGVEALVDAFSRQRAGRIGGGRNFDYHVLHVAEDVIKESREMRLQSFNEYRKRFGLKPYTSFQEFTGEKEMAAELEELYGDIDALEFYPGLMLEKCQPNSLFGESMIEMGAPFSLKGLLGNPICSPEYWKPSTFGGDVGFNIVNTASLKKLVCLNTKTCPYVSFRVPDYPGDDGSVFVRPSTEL
In words: Procedure II: CO activity in broken RBL-1 cells (homogenate supernatant). The format is biochemical. To be noted: 20 min; @ 10 .quadrature.M; RBL-1 broken cell supernatant; read-out: Proc. II CO % inhibition. As for the experimental part: as §1, §2, §3

Where [4] appears, read: @ 10 .quadrature.M, SSV cyclooxygenase.

Turning to `COc1ccc(-n2nc(C#CCN(O)C(N)=O)cc2-c2ccc(Cl)cc2)cc1` [Cpd 5, N-hydroxy-N-(1-(5-(4-chlorophenyl)-1-(4-methoxyphenyl)pyrazol-3-yl)-1-propyn-3-yl)urea], the IC50 (in general, the concentration that gives 50% inhibition) at 5-LO [1] (read-out: Proc. II 5-LO IC50) is 80 nM; on 5-LO [3], 900 nM. The inhibition (as a rule, the percentage by which the read-out fell short of the control) at 10 µM in experiment [2] (setting [4]) amounted to 9%; at CO it was 0%.
In the case of `CNC(=O)N(O)C(C)C#Cc1cc(-c2ccc(Cl)cc2)n(-c2ccc(OC)cc2)n1` (stereo not drawn) [Cpd 7], the inhibition at 10 µM was 79% at 5-LO [1], 5% in experiment [2] (setting [4]) and 0% on CO.
With `CCCNC(=O)N(O)C(C)C#Cc1cc(-c2ccc(Cl)cc2)n(-c2ccc(OC)cc2)n1` (stereo not drawn) [Cpd 8], the values for the inhibition at 10 µM (on 5-LO [1]; in experiment [2] (setting [4]); at CO) were 82%, 14% and 32%, respectively. Moreover, the IC50 on 5-LO [3] worked out at 2800 nM.
For `COc1ccc(-n2nc(C#CC(C)N(O)C(=O)N3CCCCC3)cc2-c2ccc(Cl)cc2)cc1` (stereo not drawn) [Cpd 9], the inhibition at 10 µM on 5-LO [1] came out at 76%; in experiment [2] it was 44%. For the same compound, the IC50 on 5-LO [3] was found to be 8000 nM.
The corresponding values for `COc1ccc(-n2nc(C#CCN(O)C(=O)c3ccccc3)cc2-c2ccc(C)cc2)cc1` [Cpd 15] are 100%, 52% and 8000 nM.
With `CCC(=O)N(O)C(C)C#Cc1cc(-c2ccc(C)cc2)n(-c2ccc(OC)cc2)n1` (stereo not drawn) [Cpd 19], the inhibition at 10 µM was determined as 93% at 5-LO [1], 76% in experiment [2] (setting [4]) and 67% on CO.
Consider `COc1ccc(-n2nc(C#CC(C)N(O)C(=O)c3ccco3)cc2-c2ccc(C)cc2)cc1` (stereo not drawn) [Cpd 25, N-(furan-2-carbonyl)-N-(1-(1-(4-methoxyphenyl)-5-(4-methylphenyl)pyrazol-3-yl)-1-butyn-3-yl)hydroxylamine], for which the figures for the inhibition at 10 µM on 5-LO [1] and on CO were 70% and 61%, respectively. In experiment [2] (SSV cyclooxygenase, read-out: Proc. I IC50), the IC50 is 1300 nM.
On to `CCc1ccc(-c2cc(C#CC(C)N(O)C(=O)CCC(=O)O)nn2-c2ccc(OC)cc2)cc1` (stereo not drawn) [Cpd 33], for which the figures for the inhibition at 10 µM (at 5-LO [1]; in experiment [2] (setting [4]); on CO) were 37%, 0% and 0%, respectively.
As to `CCC(=O)N(O)C(C)C#Cc1cc(-c2ccc(Cl)cc2)n(-c2ccc(OC)cc2)n1` (stereo not drawn) [Cpd 36], the inhibition at 10 µM on 5-LO [1] and on CO was 100% each time.
For `COc1ccc(-n2nc(C#CC(C)N(O)C(=O)C(C)C)cc2-c2ccc(Cl)cc2)cc1` (stereo not drawn) [Cpd 37], the inhibition at 10 µM worked out at 100% at 5-LO [1] and 80% at CO.
Consider `CCCCCCCC(=O)N(O)C(C)C#Cc1cc(-c2ccc(Cl)cc2)n(-c2ccc(OC)cc2)n1` (stereo not drawn) [Cpd 38], for which the inhibition at 10 µM on 5-LO [1] was found to be 100%; in experiment [2] (setting [4]) it was 31%; at CO, 21%.
In the case of `COc1ccc(-n2nc(C#CC(C)N(O)C(=O)CCC(=O)O)cc2-c2ccc(Cl)cc2)cc1` (stereo not drawn) [Cpd 39], the inhibition at 10 µM on 5-LO [1] was determined as 74%; in experiment [2] (setting [4]), 0%; at CO, 0%.
For `COc1ccc(-n2nc(C#CC(C)N(O)C(=O)CNCCCN(C)C)cc2-c2ccc(C)cc2)cc1` (stereo not drawn) [Cpd 42], the inhibition at 10 µM on 5-LO [1] came to 29%; in experiment [2] (setting [4]), 0%; on CO, 14%.
Regarding `CCc1ccc(-c2cc(C#CC(C)N(O)C(=O)CN3CCOCC3)nn2-c2ccc(OC)cc2)cc1` (stereo not drawn) [Cpd 44], the inhibition at 10 µM is 93% at 5-LO [1], 0% in experiment [2] (setting [4]) and 0% at CO.
For `CCc1ccc(-c2cc(C#CC(C)N(O)C(=O)CN3CCN(C)CC3)nn2-c2ccc(OC)cc2)cc1` (stereo not drawn) [Cpd 45, N-(4-methylpiperazin-1-yl)acetyl-N-(1-[5-(4-ethylphenyl)-1-(4-methoxyphenyl)pyrazol-3-yl]-1-butyn-3-yl)hydroxylamine], the inhibition at 10 µM on 5-LO [1] was found to be 25%; in experiment [2] (setting [4]), 0%; on CO it was 11%.
